ChEMBL document CHEMBL3352792, “Fragment based search for small molecule inhibitors of HIV-1 Tat-TAR” (Bioorg Med Chem Lett, 2014)
Where a name gives a salt, the structure may show the parent alone. The source made the active and inactive calls. The rule behind the calls is not given here.

Experiments:
Nucleic Acid [1] = test: Binding affinity to HIV-1 TAR RNA by Tat-TAR fluorimetric competition assay; format: nucleic-acid assay, Human immunodeficiency virus 1
Nucleic Acid [2] = test: Binding affinity to HIV-1 TAR RNA at 0.4 mM by 1H NMR titration method; format: nucleic-acid assay; details: Human immunodeficiency virus 1
Nucleic Acid [3] = test: Binding affinity to HIV-1 TAR RNA using 2 equivalents of compound by 1H NMR titration method; format: nucleic-acid assay; details: Human immunodeficiency virus 1

SMILES	IC50 (Nucleic Acid [1]) [µM]	Activity (Nucleic Acid [2])	Activity (Nucleic Acid [3])
Nc1ccc2ccnc(N)c2c1	150	Active	–
Nc1ccc2nc(N)nc(N)c2c1 [QUINAZOLINE-2,4,6-TRIAMINE]	40	–	Active
CN(C)c1ccc2nc(N)nc(N)c2c1	45	–	–
CN(C)C1=Nc2cccc3cccc(c23)N1	150	–	–
Nc1nc(N)c2cc(CN3CCNCC3)ccc2n1	60	–	–
NCc1cnc2nc(N)nc(N)c2n1	50	–	–
Nc1ccccn1 [2-AMINOPYRIDINE]	> 20000	–	–
NC1=Nc2ccccc2CN1	> 10000	–	–
c1ccc(CNC2=NCCN2)cc1	> 20000	–	–
NC1=Nc2cccc3cccc(c23)N1	50	–	–
CNC1=Nc2cccc3cccc(c23)N1	50	–	–
Nc1nc(N)c2c(N)c(N)ccc2n1	50	–	–
N=C(N)NCc1ccccc1	> 20000	–	–
Nc1cccc2c(N)nccc12	700	–	–

Continued, values first:

IC50 (Nucleic Acid [1]) [µM]	Activity (Nucleic Acid [2])	Activity (Nucleic Acid [3])	SMILES
750	–	–	Nc1nccc2ccc(O)cc12
> 20000	–	–	N=C(N)N [GUANIDINE HYDROCHLORIDE]
2000	–	–	Nc1ccc2ccncc2c1
400	–	–	Nc1nc(N)c2ccccc2n1
> 11000	–	–	Nc1nc2ccccc2[nH]1
> 20000	–	–	N=C(N)Nc1ccccc1
110	–	–	Nc1ccc2c(N)nc(N)nc2c1
2000	–	–	Cc1ccc2nc(N)nc(N)c2c1
> 2000	–	–	Nc1ncc[nH]1
130	–	–	CN(C)c1nc(N(C)C)c2cc(N)ccc2n1
70	–	–	NCc1ccc2nc(N)nc(N)c2c1
50	–	–	Nc1nc(N)c2cc(NCc3ccccc3)ccc2n1
> 20000	–	–	Nc1ncccn1
> 20000	–	–	Nc1nc2ccccc2c(=O)[nH]1
